pEC50, pIC50: −log10 of the molar value. One block for each molecule: values may come before it.
Columns and labels:
[1] = tested on: NCI-H460; test: Antiproliferative activity against human NCI-H460 cells by MTT assay; format: functional, cell-based
[2] = tested on: MCF7; test: Antiproliferative activity against human MCF7 cells by MTT assay; format: functional, cell-based
[3] = Antiproliferative activity against human MRC5 cells assessed as reduction in cell growth; format: toxicity, cell-based
[4] = tested on: PANC-1; test: Induction of apoptosis in human PANC-1 cells assessed as apoptotic cells at 2 uM incubated for 24 hrs by flow cytometric analysis relative to control; format: functional
[5] = Inhibition of Escherichia coli beta-glucuronidase
[6] = tested on: UO-31; test: Antiproliferative activity against human UO-31 cells assessed as inhibition of cell growth at 10 uM relative to control; format: functional; parameters: scale not given: the % may be the effect or the level left
[7] = Antioxidant activity assessed as DPPH radical scavenging activity at 10 ug/ml; format: functional; details: dose 10.0 µg/ml
[8] = tested on: MCF7; test: Anticancer activity against human MCF7 cells assessed as reduction in cell growth measured after 3 days by MTT assay; format: functional, cell-based; details: MCF7, 72 h
[9] = target: T1, Retinoic acid receptor RXR-alpha (Homo sapiens, UniProt P19793); test: Antagonist activity at RXRalpha (unknown origin) by Alpha Screen assay
T1 sequence (P19793 whole entry): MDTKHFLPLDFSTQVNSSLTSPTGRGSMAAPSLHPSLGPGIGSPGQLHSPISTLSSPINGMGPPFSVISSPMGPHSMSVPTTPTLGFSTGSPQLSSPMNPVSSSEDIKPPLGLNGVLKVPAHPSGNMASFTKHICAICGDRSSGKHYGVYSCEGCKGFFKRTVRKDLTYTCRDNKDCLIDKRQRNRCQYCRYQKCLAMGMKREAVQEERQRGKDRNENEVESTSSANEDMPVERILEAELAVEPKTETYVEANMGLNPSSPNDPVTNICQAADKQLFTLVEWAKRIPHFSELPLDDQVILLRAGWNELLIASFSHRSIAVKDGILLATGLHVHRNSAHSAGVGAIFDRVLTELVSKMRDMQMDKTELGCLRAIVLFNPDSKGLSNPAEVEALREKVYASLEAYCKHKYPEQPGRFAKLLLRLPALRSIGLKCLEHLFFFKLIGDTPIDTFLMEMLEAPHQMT

[10] = tested on: A549; test: Antiproliferative activity against human A549 cells assessed as reduction in cell viability measured for 24 hrs by MTT assay; details: A549, 24 h
[11] = tested on: HepG2; test: Antiproliferative activity against human HepG2 cells assessed as reduction in cell viability measured for 24 hrs by MTT assay; details: HepG2, 24 h
[12] = tested on: Mus musculus; test: Anticonvulsant activity in ip dosed scPTZ induced Kunming mouse seizure model; format: functional
[13] = tested on: Mus musculus; test: Anticonvulsant activity in ip dosed MES induced Kunming mouse seizure model; format: functional
[14] = tested on: A549; test: Antiproliferative activity against human A549 cells; format: functional, cell-based
[15] = tested on: MCF7; test: Antiproliferative activity against human MCF7 cells assessed as reduction in cell viability incubated for 72 hrs by MTT assay; format: functional, cell-based; details: MCF7, 72 h
[16] = tested on: A549; test: Antiproliferative activity against human A549 cells assessed as reduction in cell viability by MTT assay; format: functional, cell-based
[17] = tested on: MCF7; test: Cytotoxicity against human MCF7 cells assessed as reduction in cell growth; format: functional, cell-based
[18] = tested on: HeLa; test: Cytotoxicity against human HeLa cells assessed as reduction in cell viability by MTT assay; format: functional, cell-based
[19] = tested on: HepG2; test: Cytotoxicity against human HepG2 cells assessed as reduction in cell viability by MTT assay; format: functional, cell-based
[20] = tested on: MCF7; test: Cytotoxicity against human MCF7 cells assessed as reduction in cell viability by MTT assay; format: functional, cell-based
[21] = tested on: HCT-116; test: Cytotoxicity against human HCT-116 cells assessed as reduction in cell viability by MTT assay; format: functional, cell-based
[22] = Antioxidant activity assessed as ABTS radical scavenging activity after 30 mins by spectrophotometric analysis; format: functional
[23] = tested on: MDA-MB-231; test: Antiproliferative activity against human MDA-MB-231 cells; format: functional, cell-based
[24] = tested on: MCF7; test: Antiproliferative activity against human MCF7 cells assessed as reduction in cell viability measured for 72 hrs by MTT assay; format: functional, cell-based; details: MCF7, 72 h
[25] = tested on: MCF7; test: Antiproliferative activity against human MCF7 cells; format: functional, cell-based
[26] = tested on: MCF7; test: Anticancer activity against human MCF7 cells assessed as reduction in cell growth incubated for 24 hrs by MTT assay; format: functional, cell-based; details: MCF7, 24 h
[27] = tested on: NCI-H23; test: Antiproliferative activity against human NCI-H23 cells assessed as reduction in cell viability incubated for 72 hrs by MTT assay; format: functional, cell-based; details: NCI-H23, 72 h
[28] = tested on: WI-38; test: Antiproliferative activity against human WI-38 cells assessed as reduction in cell viability; format: functional, cell-based
[29] = tested on: A549; test: Antiproliferative activity against human A549 cells assessed as reduction in cell viability incubated for 72 hrs by MTT assay; format: functional, cell-based; details: A549, 72 h

pIC50 [1]: 5.05 | pIC50 [2]: 5.05
Compound: Cc1nc(-c2cccnc2)ccc1C(=O)NNC(=O)Nc1c(Cl)cc(Cl)cc1Cl

Compound: COc1ccc(NC(=O)NNC(=O)c2oc3ccccc3c2CN2CCN(c3ccccc3)CC2)cn1
pIC50 [3]: 4.13 | Activity [4]: 29.93%

pIC50 [5]: 4.81
Compound: COc1ccc(NC(=O)NNC(=O)CCc2ccccc2OC)cc1

Compound: Cc1nc(NC(=O)Nc2ccccc2)sc1C(=O)NNC(=O)Nc1ccccc1
Activity [6]: 14.8%

Compound: CC1=N/C(=C\c2ccc(Cl)cc2)C(=O)N1NC(=O)N1c2ccccc2C=Cc2ccccc21
Activity [7]: 73.9%

pIC50 [8]: 7.52
Compound: COc1cc(NC(C)CCCNC(=O)NNC(=O)/C=C/c2ccc(OC)c(OC)c2)c2ncccc2c1 (configuration not stated)

Compound: COc1ccc(/C=C2\N=C(C)N(NC(=O)N3c4ccccc4C=Cc4ccccc43)C2=O)c(OC)c1
Activity [7]: 73.9%

pEC50 [9]: 5.98 | pIC50 [10]: 5.08 | pIC50 [11]: 5.66
Compound: O=C(NNC(=S)NCc1ccccc1)c1ccc(Nc2nccc(-c3ccccn3)n2)cc1

Compound: CCOC(=O)C1(NC(=O)NNc2ccc(F)cc2)CC1(C)C (configuration not stated)
ED50 [12]: 9.2 mg/kg

pIC50 [5]: 4.77
Compound: COc1ccc(CC(=O)NNC(=O)Nc2ccccc2OC)cc1

pIC50 [8]: 7.52
Compound: COc1cc(NC(C)CCCNC(=O)NNC(=O)/C=C/c2cc(OC)c(OC)c(OC)c2)c2ncccc2c1 (configuration not stated)

Compound: COc1cc(C(=O)NN2C(=O)C(=O)N(Cc3ccccc3)C2=O)cc2c1OCCO2
ED50 [13]: 13.7 mg/kg

pIC50 [14]: 5.82 | pIC50 [15]: 6.00 | pIC50 [16]: 5.40
Compound: COc1cc(NC(C)CCCNC(=O)NNC(=O)NC2CCCCC2)c2ncccc2c1 (configuration not stated)

Compound: O=C(NNC(=O)n1nnc2ccccc21)NC(=O)c1ccccc1
pIC50 [17]: 4.10

Compound: O=C(NNC(=O)n1nnc2ccccc21)NC(c1ccccc1)c1ccccc1
pIC50 [17]: 4.10

Compound: CCOC(=O)C1(NC(=O)NNS(=O)(=O)c2ccccc2Cl)CC1(C)C (configuration not stated)
ED50 [13]: 82.6 mg/kg | ED50 [12]: 82.6 mg/kg

pEC50 [9]: 5.98 | pIC50 [10]: 5.08 | pIC50 [11]: 5.66
Compound: CCCCNC(=O)NNC(=O)c1ccc(Nc2nccc(-c3ccncc3)n2)cc1

Compound: Cc1c(C(=O)NNC(=O)Nc2ccc([N+](=O)[O-])cc2)nnn1Cc1nc2ccccc2[nH]1
pIC50 [18]: 4.72 | pIC50 [19]: 4.60 | pIC50 [20]: 4.78 | pIC50 [21]: 4.48

Compound: CCOC(=O)C1(NC(=O)NNc2ccc(F)c(Cl)c2)CC1(C)C (configuration not stated)
ED50 [12]: 58.1 mg/kg

pIC50 [14]: 5.82 | pIC50 [15]: 6.00 | pIC50 [16]: 5.40
Compound: COc1cc(NC(C)CCCNC(=O)NNC(=O)NC(=O)c2ccccc2)c2ncccc2c1 (configuration not stated)

Compound: COc1cc(C(=O)NN2C(=O)C(=O)N(C(C)C)C2=O)cc2c1OCCO2
ED50 [13]: 7.6 mg/kg

pIC50 [8]: 7.52
Compound: COc1cc(NC(C)CCCNC(=O)NNC(=O)/C=C/c2ccccc2F)c2ncccc2c1 (configuration not stated)

Compound: O=C(NNC(=O)n1nnc2ccccc21)NOC(=O)c1ccccc1
pIC50 [17]: 4.10

Compound: O=C(Cn1c(Cc2ccccc2)nc2ccccc21)NNC(=O)Nc1ccccc1
Activity [22]: 126%

pIC50 [14]: 5.82 | pIC50 [15]: 6.00 | pIC50 [16]: 5.40
Compound: COc1cc(NC(C)CCCNC(=O)NNC(=O)NO)c2ncccc2c1 (configuration not stated)

pIC50 [23]: 5.04 | pIC50 [24]: 5.92 | pIC50 [25]: 5.04
Compound: Cc1ccc(NC(=O)NNC(=O)c2cc3ccccc3[nH]2)cc1

Compound: O=C(NO)NNC(=O)n1nnc2ccccc21
pIC50 [17]: 4.10

Compound: O=C(NNC(=O)n1nnc2ccccc21)NC1CCCC1
pIC50 [17]: 4.10

pIC50 [1]: 5.05 | pIC50 [2]: 5.05
Compound: Cc1nc(-c2cccnc2)ccc1C(=O)NNC(=O)Nc1ccc(F)cc1F

pIC50 [26]: 3.66
Compound: NNC(=O)Nc1nc2ccccc2o1

pIC50 [27]: 5.83 | pIC50 [29]: 5.82
Compound: COc1cccc(NC(=O)NNC(=O)c2oc3ccccc3c2CN2CCOCC2)c1
pIC50 [28]: 4.89
